# Laboratory results: PMC8452690, “Structural basis for small molecule targeting of Doublecortin Like Kinase 1 with DCLK1-IN-1” (Communications Biology, 2021)
# Changes are numbered by the printed parent chain.
# Assays:
# [1] = target: T1, DCLK1-FL1Δ D511N (Homo sapiens, UniProt O15075, D511N); test: Thermal shift stability assay, DCLK1-FL1Δ D511N; assay type: binding; details: D511N mutant, 2.5-40 μM
# T1 construct: DCLK1-FL1Δ (residues 50-686); 8XHis tag with TEV protease cleavage site (N); made in house; host or cells: Escherichia coli C41(DE3)
# Protocol: (§1) DCLK1 proteins were diluted in 150 mM NaCl, 20 mM Tris pH 8.0, 1 mM DTT to […] final concentration and assayed with the appropriate concentration of inhibitor in a total reaction volume of 25 μL. SYPRO Orange (Molecular Probes) was used as a fluorescence probe and detected at 530 nm. The data shown are representative of two independent experiments.
# [2] = target: T2, DCLK1-FL1Δ D511N tubulin polymerisation (MAP function) (Homo sapiens, UniProt O15075, D511N); test: Fluorescence-based Tubulin Polymerisation Assay with DCLK1-FL1Δ D511N; assay type: biochemical; details: 20 μM or 40 μM, fluorescence (Fig. 5e)
# T2 construct: DCLK1-FL1Δ (residues 50-686); 8XHis tag with TEV protease cleavage site (N); made in house; host or cells: Escherichia coli C41(DE3)
# T2 sequence (O15075 50-686 isoform O15075-2 D511N): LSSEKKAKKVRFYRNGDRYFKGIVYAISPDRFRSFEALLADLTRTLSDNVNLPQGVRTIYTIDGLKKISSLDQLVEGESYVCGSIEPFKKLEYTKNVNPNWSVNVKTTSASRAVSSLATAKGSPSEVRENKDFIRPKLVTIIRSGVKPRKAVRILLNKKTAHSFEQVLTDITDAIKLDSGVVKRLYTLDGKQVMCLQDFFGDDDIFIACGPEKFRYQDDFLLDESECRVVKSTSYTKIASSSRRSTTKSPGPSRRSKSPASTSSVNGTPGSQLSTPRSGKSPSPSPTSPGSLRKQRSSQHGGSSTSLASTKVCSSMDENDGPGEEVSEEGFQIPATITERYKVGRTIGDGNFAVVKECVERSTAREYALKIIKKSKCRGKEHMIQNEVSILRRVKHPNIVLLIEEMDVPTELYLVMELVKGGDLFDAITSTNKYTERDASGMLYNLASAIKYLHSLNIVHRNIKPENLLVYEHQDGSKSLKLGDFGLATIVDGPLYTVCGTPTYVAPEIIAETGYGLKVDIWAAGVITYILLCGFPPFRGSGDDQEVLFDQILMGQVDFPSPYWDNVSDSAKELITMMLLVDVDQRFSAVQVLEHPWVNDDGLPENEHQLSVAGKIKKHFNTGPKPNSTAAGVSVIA
# Protocol: (§2) Tubulin polymerisation assay were performed using the Microtubule Polymerisation/Depolymerisation Fluorescence Kit (Cytoskeleton #BK011P) in accordance with the manufacturer’s instructions. DCLK1 (4 μΜ) was added to 50 μL tubulin reaction mix containing Buffer 1 (80 mM PIPES at pH 6.9, 2.0 mM MgCl2, 0.5 mM EGTA, 10 μM fluorescent reporter), guanosine triphosphate stock solution at 100 mM, and tubulin (10 mg/ml) stock solution, as described by the manufacturer. Paclitaxel, a control of tubulin polymerisation, was tested at 3 μM, and Νocodazole, a tubulin polymerisation inhibitor, was tested at 80 μΜ. DCLK1-IN-1 was tested at 20 and 40 μΜ with buffer alone as controls. Polymerisation leads to fluorescence enhancement due to incorporation of a fluorescence reporter into polymerising microtubules and was measured by excitation at 355 nm and emission at 460 nm. Readings were taken every 20 s on EnVision Multimode Plate Reader. Each condition was tested in duplicate with two independent batches of protein.
# [3] = target: T3, DCLK1-FL1Δ WT tubulin polymerisation activity (Homo sapiens, UniProt O15075); test: Tubulin polymerisation and pelleting assay with DCLK1-FL1Δ WT; assay type: biochemical; details: 20 and 40 μM (Supplementary Fig. 10c)
# T3 construct: DCLK1-FL1Δ (residues 50-686); 8XHis tag with TEV protease cleavage site (N); made in house; host or cells: Escherichia coli C41(DE3)
# T3 sequence (O15075 50-686 isoform O15075-2): T2 sequence (O15075 50-686 isoform O15075-2 D511N) with N462D
# Protocol: (§3) Tubulin polymerisation assays were performed in buffer containing 80 mM PIPES at pH 6.9, 2.0 mM MgCl2, 0.5 mM EGTA, 2.5 mM β,γ-Methyleneguanosine 5’-triphosphate, and 10 μM tubulin and 5 μM DCLK1 for 1 h at 37 °C. For tubulin polymerisation in the presence of inhibitors, various concentrations of the inhibitors were first incubated with DCLK1 and allowed to stand on ice for 5 min before adding this mix to the tubulin polymerisation reaction. Following the tubulin polymerisation, the reaction mix was pelleted at 20,000 g for 20 min and the supernatant and the pellet fractions were run on a 12% SDS gel. The data shown are representative of two independent experiments.
# [4] = target: T4, DCLK1-FL1Δ WT (Homo sapiens, UniProt O15075); test: Thermal shift stability assay, DCLK1-FL1Δ WT; assay type: binding; details: phosphorylated WT, 2.5-40 μM
# T4 sequence (O15075 50-686 isoform O15075-2): T2 sequence (O15075 50-686 isoform O15075-2 D511N) with N462D
# Protocol: as §1
# [5] = system: tubulin; test: Tubulin polymerisation in the absence of DCLK1 (pelleting and fluorescence assays); assay type: biochemical; details: absence of DCLK1-FL1Δ D511N
# Protocol: as §3
# as §2, with “Paclitaxel, a control of tubulin polymerisation, was tested at 3 μM, and Νocodazole, a tubulin polymerisation inhibitor, was tested at 80 μΜ. DCLK1-IN-1 was tested at 20 and 40 μΜ with buffer alone as controls.” left out, “Each condition was tested in duplicate with two independent batches of protein.” left out
# [6] = target: T5, DCLK1-KD (residues 372-649) (Homo sapiens, UniProt O15075); test: Thermal shift stability assay, DCLK1-KD; assay type: binding; details: compound titration 2.5 to 40 μM
# T5 construct: the DCLK1 kinase domain (DCLK1-KD; residues 372-649) by carrying out thermal stability assays; 8XHis tag with TEV protease cleavage site (N); made in house; host or cells: Escherichia coli C41(DE3)
# T5 sequence (O15075 372-649 isoform O15075-2): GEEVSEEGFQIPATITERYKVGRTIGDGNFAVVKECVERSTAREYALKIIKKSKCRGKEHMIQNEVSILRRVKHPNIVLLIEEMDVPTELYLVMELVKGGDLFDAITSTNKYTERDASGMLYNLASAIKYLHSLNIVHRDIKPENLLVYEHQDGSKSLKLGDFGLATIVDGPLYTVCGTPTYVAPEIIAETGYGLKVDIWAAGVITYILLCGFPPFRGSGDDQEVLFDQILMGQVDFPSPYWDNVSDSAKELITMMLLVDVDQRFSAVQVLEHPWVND
# Protocol: as §1
structure (smiles),measurement,setting,value
COc1cc(N2CCN(C)CC2)ccc1Nc1ncc2c(n1)N(C)c1ccccc1C(=O)N2CC(F)(F)F [DCLK1-IN-1],melting temperature change versus control compound DCLK1-NEG,[1],increased
same,effect on DCLK1-FL1Δ D511N ability to polymerise tubulin,[2],did not impact
same,restoration of DCLK1-FL1Δ WT tubulin polymerisation activity,[3],did not restore
same,melting temperature change versus control compound DCLK1-NEG,[4],increased
same,tubulin polymerisation and stabilisation by compound alone,[5],does not promote tubulin polymerisaton and stabilisation
same,binding by shift in melting temperature (ΔTm),[6],bind DCLK1-KD
